For the assay, the target named is Sentrin-specific protease 8 (Homo sapiens) (UniProt Q96LD8). Kind of assay: SENP8 deneddylase blockers, concentration series – biochemical, Nedd8 protein substrate, dose response (AID 624322). The settings on record: recombinant SENP8, Nedd8 substrate cleavage inhibition.

Molecules are shown by their SMILES. Calls of active or inactive are those of the source. The rule behind the calls is not given here. Some results are limits rather than exact numbers.

Broadly, the IC50 is the concentration that inhibits the measured activity by half.

Sentrin-specific protease 8 (Homo sapiens), sequence (Q96LD8 whole entry, looked up): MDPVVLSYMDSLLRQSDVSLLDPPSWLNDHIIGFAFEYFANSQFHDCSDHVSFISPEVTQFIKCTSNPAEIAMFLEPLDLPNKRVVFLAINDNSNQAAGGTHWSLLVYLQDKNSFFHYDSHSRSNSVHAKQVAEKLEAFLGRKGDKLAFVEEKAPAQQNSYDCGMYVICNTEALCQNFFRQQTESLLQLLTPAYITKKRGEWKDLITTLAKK

As for `COc1ccc(O)c(C(c2c(C)[nH][nH]c2=O)c2c(C)[nH][nH]c2=O)c1`, the IC50 was 7.17 µM.
As for `O=C(N/N=C/c1ccc([N+](=O)[O-])o1)c1ccccc1-n1cccc1`, the IC50 was > 100 µM (inactive).
As for `O=C(O)c1ccc(Cl)c(S(=O)(=O)NCc2ccco2)c1`, the figure is > 100 µM (inactive); as for `O=C(Nc1c(-c2ccccc2)[nH][nH]c1=O)c1cnccn1`, 42.6 µM; as for `Cn1c(Cc2ccccc2)nnc1SCC(=O)c1cccs1`, > 100 µM (inactive).
`COc1ccc(-n2[nH]c(C)cc2=O)cc1`: the IC50 is > 100 µM (inactive).
To `O=C(NC1C(=O)NNC1c1ccccc1)c1ccccc1` (stereo unspecified) belongs > 100 µM (inactive); to `CCCn1nc([N+](=O)[O-])c(C(C#N)c2nc3ccccc3o2)c(Cl)c1=O` (stereo unspecified), > 100 µM (inactive).
As for `NC(=O)c1ccc(N=Cc2ccc([N+](=O)[O-])s2)cc1`, the figure is 2.48 µM.
`O=C(CCc1ccccc1)c1c(O)cc(O)cc1O`: the IC50 was > 100 µM (inactive).
To `O=[N+]([O-])c1ccc(N2CCN(Cc3ccccc3)CC2)c2c1no[n+]2[O-]` belongs 17.4 µM.
Regarding `O=C(O)CCCCCCCCCCCc1ccccc1`, the IC50 is > 100 µM (inactive).
As for `O=[N+]([O-])c1cc(F)c2cccnc2c1O`, the figure is 11.8 µM; as for `CC1=C(SCCC#N)S/C(=C2\SC(C)=C(SCCC#N)S2)S1`, 0.297 µM.
For `O=c1[nH]c2ccccc2s1`, the IC50 is > 100 µM (inactive).
As for `Cc1ccc(S(=O)(=O)N[C@H](C(=O)N2CCC(C(=O)N[C@H](C(=O)O)c3ccccc3)CC2)C(C)C)cc1`, the IC50 is > 100 µM (inactive).

The values are drawn from PubChem BioAssay AID624322 (Sanford-Burnham Center for Chemical Genomics, 2012).
